The test concerns nude mice, LX-1 lung xenograft intrarenal, tumor weight T/C. The test is described as follows: NCI In Vivo Anticancer Drug Screen. Data for tumor model Human Lung LX-1 Xenograft (intrarenal inoculation) in NU/NU Swiss (nude) mice. The note with it: endpoint: mean tumor weight change, higher = larger tumour. The method, boiled down: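 Readout: T/C, i.e. treated-group tumor measurement over vehicle-control measurement. Mice bearing transplantable tumors were dosed with compound or vehicle.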

[1] abbreviates: dose: 300.0 mg/kg/injection, schedule: Q04DX003 (sc), vehicle: Klucel (hydroxypropylcellulose) (HPC).
Setting [2] is: dose: 600.0 mg/kg/injection, schedule: Q04DX003 (sc), vehicle: Klucel (hydroxypropylcellulose) (HPC).
The mark [3] stands for this setting: dose: 1200.0 mg/kg/injection, schedule: Q04DX003 (sc), vehicle: Klucel (hydroxypropylcellulose) (HPC).
Where [4] appears, read: dose: 2400.0 mg/kg/injection, schedule: Q04DX003 (sc), vehicle: Klucel (hydroxypropylcellulose) (HPC).
The mark [5] stands for this setting: dose: 200.0 mg/kg/injection, schedule: Q04DX003 (sc), vehicle: Klucel (hydroxypropylcellulose) (HPC).
Where [6] appears, read: dose: 300.0 mg/kg/injection, schedule: Q04DX003 (sc), vehicle: saline.
Where [7] appears, read: dose: 600.0 mg/kg/injection, schedule: Q04DX003 (sc), vehicle: saline.
The mark [8] stands for this setting: dose: 1200.0 mg/kg/injection, schedule: Q04DX003 (sc), vehicle: saline.
Where [9] appears, read: dose: 16.0 mg/kg/injection, schedule: Q04DX003 (sc), vehicle: saline.
The mark [10] stands for this setting: dose: 2.0 mg/kg/injection, schedule: Q01DX010 (sc), vehicle: saline.
[11] abbreviates: dose: 4.0 mg/kg/injection, schedule: Q01DX010 (sc), vehicle: saline.

Data on 20 compounds can be found in PubChem BioAssay AID264 (DTP/NCI, 2004).

Structures are written as SMILES. Several values for one entry are separate records, joined by “and”; a condition that tells them apart may be missing. Equal entries are not always repeated. Records with an inconclusive call do not appear.

As for `[N-]=[N+]=CC(=O)CCC(=O)C=[N+]=[N-]`, the T/C is, setting by setting: (dose: 1.5 mg/kg/injection, schedule: Q01DX010 (sc), vehicle: DMSO) 69 % of control; (dose: 3.0 mg/kg/injection, schedule: Q01DX010 (sc), vehicle: DMSO) 27 % of control.

With `CSc1ncc2ncn(C3OC(CO)C(O)C3O)c2n1` (stereo not given), the T/C runs as follows: under setting [1], 61 % of control; under setting [2], 57 % of control; under setting [3], 56 % of control; under setting [4], 53 % of control.

For the compound `O=c1[nH]c(=O)n(C2CC(O)C(CO)O2)cc1C(F)(F)F` (stereo not given), the T/C reads like this: (dose: 50.0 mg/kg/injection, schedule: Q01DX010 (sc), vehicle: saline) 91 % of control; (dose: 100.0 mg/kg/injection, schedule: Q01DX010 (sc), vehicle: saline) 100 % of control; (dose: 200.0 mg/kg/injection, schedule: Q01DX010 (sc), vehicle: saline) 51 % of control; (dose: 400.0 mg/kg/injection, schedule: Q01DX010 (sc), vehicle: saline) 30 % of control.

Regarding `O=Cc1ccc(O)c(O)c1`, the T/C (dose: 100.0 mg/kg/injection, schedule: Q04DX003 (sc), vehicle: saline with Tween-80) is 172 % of control; the T/C (dose: 200.0 mg/kg/injection, schedule: Q04DX003 (sc), vehicle: saline with Tween-80) was 100 % of control; the T/C (dose: 400.0 mg/kg/injection, schedule: Q04DX003 (sc), vehicle: saline with Tween-80) was 86 % of control; the T/C (dose: 800.0 mg/kg/injection, schedule: Q04DX003 (sc), vehicle: saline with Tween-80) was 73 % of control.

As to `COCC1OC2OC3C(COC)OC(OC4C(COC)OC(OC5C(COC)OC(OC6C(COC)OC(OC7C(COC)OC(OC8C(COC)OC(OC1C(O)C2O)C(O)C8O)C(O)C7O)C(O)C6O)C(O)C5O)C(O)C4O)C(O)C3O` (stereo not given) (tested in a mixture with another compound), under setting [5], the T/C was 156 % of control.

In the case of `COc1cc2c(ccc3c4cc(OC)c(OC)cc4c[n+](C)c23)cc1O`, the T/C was 107 % of control under setting [6]; 79 % of control under setting [7]; 46 % of control under setting [8]; 65 % of control (dose: 2400.0 mg/kg/injection, schedule: Q04DX003 (sc), vehicle: saline).

In the case of `C/C=C(\C)c1cc(=O)c2c(C)cc3c(c2o1)C(=O)c1c(O)c(C2CC(C)(N(C)C)C(O)C(C)O2)cc(C2CC(N(C)C)C(O)C(C)O2)c1C3=O` (stereo not given), the T/C runs as follows: (dose: 2.0 mg/kg/injection, schedule: Q04DX003 (sc), vehicle: saline) 76 % of control; (dose: 4.0 mg/kg/injection, schedule: Q04DX003 (sc), vehicle: saline) 89 % of control; (dose: 8.0 mg/kg/injection, schedule: Q04DX003 (sc), vehicle: saline) 80 % of control; under setting [9], 35 % of control.

As for `COc1cc(Cc2nccc3cc(OC)c(OC)cc23)c(C(C)=O)cc1OC`, the T/C was 87 % of control (dose: 150.0 mg/kg/injection, schedule: Q04DX003 (sc), vehicle: saline); 88 % of control under setting [6]; 99 % of control under setting [7]; 87 % of control under setting [8].

Take `CCc1ccc(C2=C(O)C(=O)C(c3ccccc3)=C(O)C2=O)cc1`: the T/C reads like this: under setting [1], 104 % of control; under setting [2], 49 % of control; under setting [3], 36 % of control.

As for `Cc1c(N)nc([C@H](CC(N)=O)NC[C@H](N)C(N)=O)nc1C(=O)N[C@H](C(=O)N[C@H](C)[C@@H](O)[C@H](C)C(=O)N[C@H](C(=O)NCCc1nc(-c2nc(C(=O)NCCC[S+](C)C)cs2)cs1)[C@@H](C)O)C(OC1OC(CO)C(O)C(O)C1OC1OC(CO)C(O)C(OC(N)=O)C1O)c1cnc[nH]1` (stereo not given in full), the T/C reads like this: under setting [10], 14 % of control; under setting [11], 71 % of control; under setting [9], 49 % of control; (dose: 32.0 mg/kg/injection, schedule: Q04DX003 (sc), vehicle: saline) 47 % of control.

Turning to `O=NN(CCCl)C(=O)NC1[C@H](O)CCC[C@@H]1O` (stereo not given in full), the T/C (dose: 5.0 mg/kg/injection, schedule: Q04DX003 (sc), vehicle: saline) was 25 % of control and 30 % of control and 48 % of control.

Regarding `COc1cccc2c1C(=O)c1c(O)c3c(c(O)c1C2=O)C[C@@](O)(/C(C)=N/NC(=O)c1ccc(Cl)cc1)C[C@@H]3OC1CC(N)C(O)C(C)O1` (stereo not given in full), the T/C (dose: 4.0 mg/kg/injection, schedule: Q01DX010 (sc), vehicle: water) is 156 % of control; the T/C (dose: 6.0 mg/kg/injection, schedule: Q04DX003 (sc), vehicle: water) is 64 % of control; the T/C (dose: 8.0 mg/kg/injection, schedule: Q01DX010 (sc), vehicle: water) is 42 % of control; the T/C (dose: 16.0 mg/kg/injection, schedule: Q01DX010 (sc), vehicle: water) is 43 % of control; the T/C (dose: 96.0 mg/kg/injection, schedule: Q04DX003 (sc), vehicle: water) is 20 % of control and 33 % of control.

Turning to `CCc1ccccc1N1CCN(C(=O)c2cc(OC)c(OC)c(OC)c2)CC1`, the T/C under setting [1] is 62 % of control, the T/C under setting [2] is 34 % of control, the T/C under setting [3] was 33 % of control and the T/C under setting [4] is 30 % of control.

In the case of `CCCCCCCC(=O)OCC(=O)[C@]1(O)Cc2c(O)c3c(c(O)c2[C@@H](OC2CC(N)C(O)C(C)O2)C1)C(=O)c1c(OC)cccc1C3=O` (stereo not given in full), the T/C is 104 % of control under setting [10] and 173 % of control under setting [11].

`C[n+]1ccc(Nc2ccc(NC(=O)c3ccc(Nc4cc[n+](C)c5ccc(N)cc45)cc3)cc2)cc1`: the T/C by setting is: (dose: 12.5 mg/kg/injection, schedule: Q04DX003 (sc), vehicle: distilled water + Tween-80) 80 % of control; (dose: 25.0 mg/kg/injection, schedule: Q04DX003 (sc), vehicle: distilled water + Tween-80) 86 % of control; (dose: 50.0 mg/kg/injection, schedule: Q04DX003 (sc), vehicle: distilled water + Tween-80) 25 % of control; (dose: 100.0 mg/kg/injection, schedule: Q04DX003 (sc), vehicle: distilled water + Tween-80) 53 % of control.

For the compound `CCOC(=O)CNC(=O)CCCCSc1ncnc2nc[nH]c12`, the T/C was 80 % of control (dose: 300.0 mg/kg/injection, schedule: Q04DX003 (sc), vehicle: saline with Tween-80); 86 % of control (dose: 600.0 mg/kg/injection, schedule: Q04DX003 (sc), vehicle: saline with Tween-80); 85 % of control (dose: 1200.0 mg/kg/injection, schedule: Q04DX003 (sc), vehicle: saline with Tween-80); 114 % of control (dose: 2400.0 mg/kg/injection, schedule: Q04DX003 (sc), vehicle: saline with Tween-80).

Turning to `c1cc(NC2CCCCC2)ccc1CN1CCOCC1`, the T/C reads like this: (dose: 50.0 mg/kg/injection, schedule: Q01DX010 (sc), vehicle: saline + Tween-80 + alcohol) 38 % of control; (dose: 100.0 mg/kg/injection, schedule: Q01DX010 (sc), vehicle: saline + Tween-80 + alcohol) 74 % of control; (dose: 800.0 mg/kg/injection, schedule: Q01DX010 (sc), vehicle: saline + Tween-80 + alcohol) 84 % of control; (dose: 1600.0 mg/kg/injection, schedule: Q01DX010 (sc), vehicle: saline + Tween-80 + alcohol) 84 % of control.

With `O=C1c2ccccc2C(=O)c2c3c(cc(NCCNCCO)c21)N(CCO)CCN3`, the T/C was 122 % of control (dose: 200.0 mg/kg/injection, schedule: Q04DX003 (sc), vehicle: DMSO); 86 % of control (dose: 400.0 mg/kg/injection, schedule: Q04DX003 (sc), vehicle: DMSO); 83 % of control (dose: 800.0 mg/kg/injection, schedule: Q04DX003 (sc), vehicle: DMSO).

For `CCCCCCCCCCCCCCC/C([O-])=N/[N+](C)(C)CC(C)O` (stereo not given), the T/C (dose: 100.0 mg/kg/injection, schedule: Q04DX003 (sc), vehicle: Klucel (hydroxypropylcellulose) (HPC)) was 66 % of control; the T/C under setting [5] was 54 % of control; the T/C (dose: 400.0 mg/kg/injection, schedule: Q04DX003 (sc), vehicle: Klucel (hydroxypropylcellulose) (HPC)) was 103 % of control; the T/C (dose: 800.0 mg/kg/injection, schedule: Q04DX003 (sc), vehicle: Klucel (hydroxypropylcellulose) (HPC)) was 77 % of control; the T/C under setting [3] is 77 % of control; the T/C under setting [4] is 69 % of control.

For the compound `CNc1nc2c(N)ncnc2n1C1OC(CO)C(O)C1O` (stereo not given), the T/C is, setting by setting: (dose: 25.0 mg/kg/injection, schedule: Q04DX003 (sc), vehicle: saline) 103 % of control; (dose: 50.0 mg/kg/injection, schedule: Q04DX003 (sc), vehicle: saline) 82 % of control; (dose: 100.0 mg/kg/injection, schedule: Q04DX003 (sc), vehicle: saline) 57 % of control.
